According to ChEMBL document CHEMBL1201862, “PubChem BioAssay data set” (2004):
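Assay format: 96-well plates, 48-hour exposure. The concentration for 50% growth inhibition is given as GI50.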 The source made the active and inactive calls. Rule as the data show it: active = GI50 up to about 1.1 µM and inactive = higher. Where a SMILES comes first, the peptide text is derived from it. The star is where a group is joined. Boc = CC(C)(C)OC(=O)*; OBn = c1ccc(CO*)cc1

Columns and labels:
Assay in all cases: NCI-60 cell line screen, 48 h
[1] = tested on: 786-0
[2] = tested on: A498
[3] = tested on: A549
[4] = tested on: ACHN
[5] = tested on: BT-549
[6] = tested on: CAKI-1
[7] = tested on: CCRF-CEM
[8] = tested on: COLO 205
[9] = tested on: DU-145
[10] = tested on: EKVX
[11] = tested on: HCC 2998
[12] = tested on: HCT-116
[13] = tested on: HCT-15
[14] = tested on: HL-60
[15] = tested on: HOP-62
[16] = tested on: HT-29
[17] = tested on: Hs-578T
[18] = tested on: IGROV-1
[19] = tested on: K562
[20] = tested on: KM12
[21] = tested on: LOX IMVI
[22] = tested on: M14
[23] = tested on: MCF7
[24] = tested on: MDA-MB-231
[25] = tested on: MDA-MB-435
[26] = tested on: MOLT-4
[27] = tested on: Malme-3M
[28] = tested on: NCI-H226
[29] = tested on: NCI-H23
[30] = tested on: NCI-H460
[31] = tested on: NCI/ADR-RES
[32] = tested on: OVCAR-3
[33] = tested on: OVCAR-4
[34] = tested on: OVCAR-5
[35] = tested on: OVCAR-8
[36] = tested on: PC-3
[37] = tested on: RPMI-8226
[38] = tested on: RXF 393
[39] = tested on: SF-268
[40] = tested on: SF-295
[41] = tested on: SF-539
[42] = tested on: SK-MEL-28
[43] = tested on: SK-MEL-5
[44] = tested on: SK-OV-3
[45] = tested on: SN12C
[46] = tested on: SNB-19
[47] = tested on: SR
[48] = tested on: SW-620
[49] = tested on: TK-10
[50] = tested on: U-251
[51] = tested on: UACC-257
[52] = tested on: UACC-62
[53] = tested on: UO-31
[54] = tested on: HOP-92
[55] = tested on: MDA-N
[56] = tested on: NCI-H522
[57] = tested on: SK-MEL-2
[58] = tested on: SNB-75
[59] = tested on: T47D

Compound: O=[N+]([O-])/C(C(Cl)=C(Cl)Cl)=C1\NCCS1
- GI50 [1]: 36.1 µM (inactive)
- GI50 [2]: 26.1 µM (inactive)
- GI50 [3]: > 100 µM (inactive)
- GI50 [4]: 61 µM (inactive)
- GI50 [5]: 70 µM (inactive)
- GI50 [6]: 45.7 µM (inactive)
- GI50 [7]: 19.1 µM (inactive)
- GI50 [8]: 40.1 µM (inactive)
- GI50 [9]: > 100 µM (inactive)
- GI50 [10]: > 100 µM (inactive)
- GI50 [11]: 34.4 µM (inactive)
- GI50 [12]: 43.3 µM (inactive)
- GI50 [13]: 35.6 µM
- GI50 [14]: 16.9 µM (inactive)
- GI50 [15]: > 100 µM (inactive)
- GI50 [16]: 47.8 µM (inactive)
- GI50 [17]: 27.4 µM (inactive)
- GI50 [18]: 62.4 µM (inactive)
- GI50 [19]: 18.8 µM (inactive)
- GI50 [20]: 69.7 µM (inactive)
- GI50 [21]: 20.1 µM (inactive)
- GI50 [22]: 46.9 µM (inactive)
- GI50 [23]: 36 µM (inactive)
- GI50 [24]: 38.8 µM (inactive)
- GI50 [25]: 35.8 µM (inactive)
- GI50 [26]: 21.9 µM (inactive)
- GI50 [27]: 19.7 µM (inactive)
- GI50 [28]: > 100 µM (inactive)
- GI50 [29]: 31.5 µM (inactive)
- GI50 [30]: 83.9 µM (inactive)
- GI50 [31]: 30.2 µM (inactive)
- GI50 [32]: 33.3 µM (inactive)
- GI50 [33]: 29.1 µM (inactive)
- GI50 [34]: > 100 µM (inactive)
- GI50 [35]: 47.2 µM (inactive)
- GI50 [36]: 35.6 µM (inactive)
- GI50 [37]: 19 µM (inactive)
- GI50 [38]: 27.9 µM (inactive)
- GI50 [39]: 39.9 µM (inactive)
- GI50 [40]: > 100 µM (inactive)
- GI50 [41]: 42.5 µM (inactive)
- GI50 [42]: 48.2 µM (inactive)
- GI50 [43]: > 100 µM (inactive)
- GI50 [44]: > 100 µM (inactive)
- GI50 [45]: 36.5 µM (inactive)
- GI50 [46]: > 100 µM (inactive)
- GI50 [47]: 18.4 µM (inactive)
- GI50 [48]: 56 µM (inactive)
- GI50 [49]: > 100 µM (inactive)
- GI50 [50]: 45.8 µM (inactive)
- GI50 [51]: 42.2 µM (inactive)
- GI50 [52]: 39.7 µM (inactive)
- GI50 [53]: 41.1 µM (inactive)

Compound: CC(C)CC(NC(=O)OC(C)(C)C)C(=O)N1CCCC1C(=O)OCc1ccccc1 (stereo not drawn) (Boc-Leu-Pro-OBn; configuration not given here)
- GI50 [1]: > 100 µM (inactive)
- GI50 [2]: > 100 µM (inactive)
- GI50 [3]: > 100 µM (inactive)
- GI50 [4]: > 100 µM (inactive)
- GI50 [5]: > 100 µM (inactive)
- GI50 [6]: > 100 µM (inactive)
- GI50 [8]: > 100 µM (inactive)
- GI50 [9]: > 100 µM (inactive)
- GI50 [10]: > 100 µM (inactive)
- GI50 [12]: > 100 µM (inactive)
- GI50 [13]: 63.4 µM
- GI50 [54]: > 100 µM (inactive)
- GI50 [16]: 41.4 µM (inactive)
- GI50 [18]: > 100 µM (inactive)
- GI50 [19]: 35.2 µM (inactive)
- GI50 [20]: > 100 µM (inactive)
- GI50 [21]: 40.4 µM (inactive)
- GI50 [22]: 99.3 µM (inactive)
- GI50 [23]: 67.8 µM (inactive)
- GI50 [24]: > 100 µM (inactive)
- GI50 [25]: > 100 µM (inactive)
- GI50 [55]: > 100 µM (inactive)
- GI50 [27]: > 100 µM (inactive)
- GI50 [28]: > 100 µM (inactive)
- GI50 [29]: > 100 µM (inactive)
- GI50 [56]: > 100 µM (inactive)
- GI50 [31]: > 100 µM (inactive)
- GI50 [32]: > 100 µM (inactive)
- GI50 [33]: > 100 µM (inactive)
- GI50 [34]: > 100 µM (inactive)
- GI50 [35]: > 100 µM (inactive)
- GI50 [36]: > 100 µM (inactive)
- GI50 [38]: > 100 µM (inactive)
- GI50 [39]: > 100 µM (inactive)
- GI50 [40]: > 100 µM (inactive)
- GI50 [41]: > 100 µM (inactive)
- GI50 [42]: 76.7 µM (inactive)
- GI50 [57]: > 100 µM (inactive)
- GI50 [43]: > 100 µM (inactive)
- GI50 [44]: > 100 µM (inactive)
- GI50 [45]: > 100 µM (inactive)
- GI50 [46]: > 100 µM (inactive)
- GI50 [58]: > 100 µM (inactive)
- GI50 [47]: 15.3 µM (inactive)
- GI50 [48]: > 100 µM (inactive)
- GI50 [59]: > 100 µM (inactive)
- GI50 [49]: > 100 µM (inactive)
- GI50 [50]: > 100 µM (inactive)
- GI50 [51]: > 100 µM (inactive)
- GI50 [52]: > 100 µM (inactive)
- GI50 [53]: 75 µM (inactive)
